Activity calls are given as the source filed them.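 The calls were made as follows: active = IC50 at or below 20 µM; inactive = the rest.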
Target: Fatty acid synthase (Homo sapiens) (UniProt P49327)
Test: FAS thioesterase domain inhibitors, SAR follow-up, biochemical, endpoint fluorescence intensity, powder samples (AID 652164)
Conditions: recombinant FAS-TE, OMFH substrate fluorescence

Chain of Fatty acid synthase (Homo sapiens) (P49327 whole entry, looked up, the tested form may be a part): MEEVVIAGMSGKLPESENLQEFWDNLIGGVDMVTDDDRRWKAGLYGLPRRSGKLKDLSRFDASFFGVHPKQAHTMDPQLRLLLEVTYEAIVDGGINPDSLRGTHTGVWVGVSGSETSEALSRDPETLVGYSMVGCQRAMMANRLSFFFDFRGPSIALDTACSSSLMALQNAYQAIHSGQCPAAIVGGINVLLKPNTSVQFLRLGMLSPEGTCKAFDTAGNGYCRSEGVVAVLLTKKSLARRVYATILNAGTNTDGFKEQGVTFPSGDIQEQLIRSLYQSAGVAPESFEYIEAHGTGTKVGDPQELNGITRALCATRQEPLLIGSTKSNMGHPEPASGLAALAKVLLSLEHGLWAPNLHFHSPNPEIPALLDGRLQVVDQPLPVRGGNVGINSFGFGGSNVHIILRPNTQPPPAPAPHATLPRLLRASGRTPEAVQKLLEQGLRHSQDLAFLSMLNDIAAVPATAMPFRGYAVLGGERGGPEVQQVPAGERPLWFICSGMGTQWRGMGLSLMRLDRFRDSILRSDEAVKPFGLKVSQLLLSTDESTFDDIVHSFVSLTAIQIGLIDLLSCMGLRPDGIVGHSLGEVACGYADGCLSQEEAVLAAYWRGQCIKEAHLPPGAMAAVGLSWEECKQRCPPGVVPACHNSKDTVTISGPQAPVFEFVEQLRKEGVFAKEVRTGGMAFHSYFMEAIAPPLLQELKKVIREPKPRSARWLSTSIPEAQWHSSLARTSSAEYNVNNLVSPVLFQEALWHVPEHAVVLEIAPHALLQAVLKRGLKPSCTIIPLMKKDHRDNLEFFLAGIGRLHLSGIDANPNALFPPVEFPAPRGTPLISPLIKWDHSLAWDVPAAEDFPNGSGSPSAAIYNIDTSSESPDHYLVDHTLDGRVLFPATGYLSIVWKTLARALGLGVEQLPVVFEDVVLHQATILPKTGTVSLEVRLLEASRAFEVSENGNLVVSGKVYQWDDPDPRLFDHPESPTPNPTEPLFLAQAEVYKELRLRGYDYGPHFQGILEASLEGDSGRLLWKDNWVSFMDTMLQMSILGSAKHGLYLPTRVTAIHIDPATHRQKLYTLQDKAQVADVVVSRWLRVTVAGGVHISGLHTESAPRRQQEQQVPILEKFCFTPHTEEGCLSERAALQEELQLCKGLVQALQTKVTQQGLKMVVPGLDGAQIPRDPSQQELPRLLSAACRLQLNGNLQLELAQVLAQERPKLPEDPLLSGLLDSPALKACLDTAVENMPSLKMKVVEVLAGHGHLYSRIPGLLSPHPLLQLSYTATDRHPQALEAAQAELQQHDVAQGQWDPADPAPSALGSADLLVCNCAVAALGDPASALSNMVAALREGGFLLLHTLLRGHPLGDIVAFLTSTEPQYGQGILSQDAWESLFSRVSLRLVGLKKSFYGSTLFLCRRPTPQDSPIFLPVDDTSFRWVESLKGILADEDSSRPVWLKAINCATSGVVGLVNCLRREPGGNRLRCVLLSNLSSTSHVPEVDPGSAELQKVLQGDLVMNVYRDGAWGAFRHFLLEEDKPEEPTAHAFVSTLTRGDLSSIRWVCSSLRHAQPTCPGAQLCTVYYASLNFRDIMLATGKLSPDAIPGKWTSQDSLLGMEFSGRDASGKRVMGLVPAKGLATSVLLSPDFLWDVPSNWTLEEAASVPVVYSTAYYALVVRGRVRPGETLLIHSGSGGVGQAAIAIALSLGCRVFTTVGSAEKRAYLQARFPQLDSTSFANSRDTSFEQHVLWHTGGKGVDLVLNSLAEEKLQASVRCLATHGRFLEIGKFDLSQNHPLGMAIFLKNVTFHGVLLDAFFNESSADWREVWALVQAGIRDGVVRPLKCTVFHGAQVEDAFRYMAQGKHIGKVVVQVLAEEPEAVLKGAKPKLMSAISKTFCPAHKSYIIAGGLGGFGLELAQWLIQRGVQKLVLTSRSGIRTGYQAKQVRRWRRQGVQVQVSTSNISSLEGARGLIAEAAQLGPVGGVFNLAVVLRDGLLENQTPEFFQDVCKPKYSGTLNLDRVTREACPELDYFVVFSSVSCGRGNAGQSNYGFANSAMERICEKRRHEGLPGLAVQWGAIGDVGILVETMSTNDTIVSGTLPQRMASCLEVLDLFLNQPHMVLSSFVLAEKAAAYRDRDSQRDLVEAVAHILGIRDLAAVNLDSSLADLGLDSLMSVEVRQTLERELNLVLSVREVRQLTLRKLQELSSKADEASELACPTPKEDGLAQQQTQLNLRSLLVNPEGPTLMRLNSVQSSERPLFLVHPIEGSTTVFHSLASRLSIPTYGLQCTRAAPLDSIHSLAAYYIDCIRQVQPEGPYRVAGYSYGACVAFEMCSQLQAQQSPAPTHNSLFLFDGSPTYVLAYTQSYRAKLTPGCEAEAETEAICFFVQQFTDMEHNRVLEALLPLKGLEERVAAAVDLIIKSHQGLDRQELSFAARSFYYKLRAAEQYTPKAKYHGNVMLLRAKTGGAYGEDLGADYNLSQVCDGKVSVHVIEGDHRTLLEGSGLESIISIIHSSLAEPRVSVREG

SMILES | IC50
O=C(Nc1nc(-c2ccc(S(=O)(=O)N3CCOCC3)cc2)cs1)C1CCC1 | 3.59 µM
CCC(=O)Nc1nc(-c2ccc(S(=O)(=O)N(CC)CC)cc2)cs1 | 4.25 µM
CCC(=O)Nc1nc(-c2ccc(S(=O)(=O)N3CCOCC3)cc2)cs1 | 4.52 µM
CCCCC(=O)Nc1nc(-c2ccc(S(=O)(=O)N3CCCC3)cc2)cs1 | 0.201 µM
CCC(=O)Nc1nc(-c2ccc(S(=O)(=O)N3CCCC3)cc2)cs1 | 0.648 µM
CCN(CC)S(=O)(=O)c1ccc(-c2csc(NC(=O)C3CCCCC3)n2)cc1 | 2.93 µM
O=C(Nc1nc(-c2ccc(S(=O)(=O)N3CCCC3)cc2)cs1)C1CC1 | 0.558 µM
CCC(C)C(=O)Nc1nc(-c2ccc(S(=O)(=O)N3CCOCC3)cc2)cs1 (centres undefined) | 0.311 µM
CC(C)(C)OC(=O)Nc1nc(-c2ccc(S(=O)(=O)N3CCOCC3)cc2)cs1 | inactive
O=C(Nc1nc(-c2ccc(S(=O)(=O)N3CCCC3)cc2)cs1)C1CCC1 | 0.398 µM
CCC(C)C(=O)Nc1nc(-c2ccc(S(=O)(=O)N(CC)CC)cc2)cs1 (centres undefined) | 0.3 µM
CCCCC(=O)Nc1nc(-c2ccc(S(=O)(=O)N3CCOCC3)cc2)cs1 | 0.552 µM
CCCCC(=O)Nc1nc(-c2ccc(S(=O)(=O)N3CCC(C)CC3)cc2)cs1 | 0.501 µM
CC(C)C(=O)Nc1nc(-c2ccc(S(=O)(=O)N3CCCC3)cc2)cs1 | 0.277 µM
CCN(CC)S(=O)(=O)c1ccc(-c2csc(NC(=O)C3CC3)n2)cc1 | 2.32 µM
CCCCC(=O)Nc1nc(-c2ccc(S(=O)(=O)N(CC)CC)cc2)cs1 | 0.172 µM
O=C(Nc1nc(-c2ccc(S(=O)(=O)N3CCOCC3)cc2)cs1)C1CC1 | 5.21 µM
CCN(CC)S(=O)(=O)c1ccc(-c2csc(NC(=O)C(C)C)n2)cc1 | 0.281 µM
CC(C)C(=O)Nc1nc(-c2ccc(S(=O)(=O)N(C)C)cc2)cs1 | 0.575 µM
CCC(CC)C(=O)Nc1nc(-c2ccc(S(=O)(=O)N3CCOCC3)cc2)cs1 | 0.334 µM
CCCCC(=O)Nc1nc(-c2ccc(S(=O)(=O)N3CCSCC3)cc2)cs1 | 0.713 µM
CC(C)CC(=O)Nc1nc(-c2ccc(S(=O)(=O)N3CCOCC3)cc2)cs1 | 11.6 µM
CC1CCN(S(=O)(=O)c2ccc(-c3csc(NC(=O)C(C)C)n3)cc2)CC1 | 0.658 µM
O=C(Nc1nc(-c2ccc(S(=O)(=O)N3CCCC3)cc2)cs1)C1CCCC1 | 0.729 µM

Source: PubChem BioAssay AID652164 (Sanford-Burnham Center for Chemical Genomics, 2013)
